Test results from publication PMC4413193, “3-[4-(1H-Indol-3-yl)-1,3-thiazol-2-yl]-1H-pyrrolo[2,3-b]pyridines, Nortopsentin Analogues with Antiproliferative Activity” (Marine Drugs, 2015).

Assay: Solubility noted during NMR characterisation
Assay type: physicochemical
Conditions: NMR solvents (DMSO-d6 or CDCl3)
Method: All melting points were taken on a Büchi-Tottoly capillary apparatus. IR spectra were determined in bromoform with a Shimadzu FT/IR 8400S spectrophotometer. ^1H and ^13C NMR spectra were measured at 200 and 50.0 MHz, respectively, in dimethylsulfoxide (DMSO)-d6 or CDCl3 solution, using a Bruker Avance II series 200 MHz spectrometer. […] Column chromatography was performed with Merk silica gel 230–400 mesh ASTM or with Büchi Sepacor chromatography module (prepacked cartridge system). Elemental analyses (C, H, N) were within ±0.4% of theoretical values and were performed with a VARIO EL III elemental analyzer. Purity of all the tested compounds was greater than 98%, determined by HPLC as described below.

| Compound | solubility |
| --- | --- |
| Cn1cc(-c2csc(-c3c[nH]c4ncccc34)n2)c2cc(F)ccc21 [Compound 3a, 3-[4-(5-Fluoro-1-methyl-1H-indol-3-yl)-1,3-thiazol-2-yl]-1H-pyrrolo[2,3-b]pyridine] | poor solubility |
| Cn1cc(-c2csc(-c3cn(C)c4ncccc34)n2)c2cc(F)ccc21 [Compound 3b, 3-[4-(5-Fluoro-1-methyl-1H-indol-3-yl)-1,3-thiazol-2-yl]-1-methyl-1H-pyrrolo[2,3-b]pyridine] | poor solubility |
